# Residues, ends and D or L forms follow the SMILES beside them.
# Key:
# [1] = Determination of peptide hydrophobicity with RP-HPLC (adjusted retention time); type: physicochemical; settings: for tR’: Table 3, adjusted retention time as hydrophobicity; for tR’ / Adjusted retention time: RP-HPLC C18, linear 10–55% acetonitrile over 60 min; for tR’ / tR’ (adjusted retention time) / Adjusted retention time: 0.1% TFA, 25.0 °C, UV 214 nm, triplicate; for tR’ (adjusted retention time): Table 1 and b9, measure of hydrophobicity, RP-HPLC, Phenomenex Luna C18(2) 3.0 × 100 mm, 5 µm, linear 10–55% acetonitrile in water over 60 min, 0.5 mL/min, peptide 1 g/L; for Adjusted retention time: Table 2, nC = carbon atoms in fatty acid chain; for ∆tR: tR’ of the lipopeptide minus tR’ of C10-RR-NH2 or C12-RR-NH2, same RP-HPLC conditions
# Protocol: To determine peptide hydrophobicity, the Waters Alliance e2695 system with a Waters 2998 PDA Detector (software-Empower®3) was used. All analyses were carried out on a Phenomenex Luna C18(2) column (3.0 × 100 mm, 5 µm particle size, 100 Å pore size). The peptides were dissolved in water (0.1% TFA, v/v) to obtain a concentration of 1 g/L. UV detection at 214 nm was used, and aliquots (10 µL) were eluted with a linear 10–55% acetonitrile gradient in deionized water over 60 min at 25.0 ± 0.1 °C. The mobile phase flow rate was 0.5 mL/min. Both eluents contained 0.1% (v/v) of TFA. Each peptide sample was analyzed in triplicate.
# [2] = system: human red blood cells (hRBCs); type: cell-based; settings: red cells of human, 1 h
# Protocol: The hemolysis assay was performed as described earlier according to the method of Avrahami and Shai. Fresh human red blood cells (hRBCs) with anticoagulant (EDTA) were rinsed three times with a PBS (Merck, Darmstadt, Germany) by centrifugation at 800× g for 10 min and resuspended in PBS. Lipopeptides were serially diluted on 96-well microtiter polystyrene plate and hRBCs were added to reach final volume of 100 µL. Peptide concentration ranged between 0.5 and 256 µg/mL and final hRBCs concentration was 4% (v/v). Controls for zero hemolysis (blank) and 100% hemolysis consisted of hRBCs suspended in PBS and 1% of Triton-X 100 (Merck, Darmstadt, Germany), respectively. The plate was incubated for 1 h at 37 °C and then centrifuged (800× g, 10 min, 4 °C). Subsequently, supernatant was […] to new microtiter plates and absorbance at 540 nm were measured. All experiments were conducted in triplicate. Protocol of the study received approval from the local Bioethics Committee at the Medical University of Gdańsk (NKBBN/262/2019).
# [3] = system: C. albicans ATCC 10231; type: cell-based, Candida albicans; settings: ATCC 10231, 24 h, pH 7
# From the text: (§1) The Acinetobacter baumannii ATCC BAA-1605, Candida albicans ATCC 10231, Enterococcus faecium ATCC 700221, Klebsiella aerogenes ATCC 13048 (previously known as Enterobacter aerogenes), Klebsiella pneumoniae ATCC 700603, Pseudomonas aeruginosa ATCC 9027, Staphylococcus aureus ATCC 25923 and MRSA ATCC 33591, were acquired from the American Type Culture Collection (ATCC). Before running the tests, beads with cryo-protected microorganisms were transferred into fresh MHB (BioMaxima, Lublin, Poland) for bacteria or RPMI-1640 for fungi and incubated for 24 h at 37 °C. Then, the culture was seeded on the Mueller-Hinton agar (MHA) plates (BioMaxima, Lublin, Poland) for bacteria or Sabouraud dextrose agar (SDA) plates (BioMaxima, Lublin, Poland) for fungi and incubated as just mentioned. Cell densities for all assays were adjusted spectrophotometrically (Multiskan™ GO Microplate Spectrophotometer, Thermo Fisher Scientific, Vantaa, Finland) at 600 nm for bacteria and at 530 nm for fungi.
# (§2) The MICs were determined by broth microdilution method according to the Clinical and Laboratory Standard Institute guidelines. For this purpose initial inoculums of bacteria (5 × 10^5 CFU/mL) in MHB (BioMaxima, Lublin, Poland) and fungi (2 × 10^3 CFU/mL) in RPMI-1640 with 2% D-glucose (Merck, Darmstadt, Germany) prepared with MOPS (pH 7.0 ± 0.1 at 25 °C; Merck, Darmstadt, Germany) were exposed to the ranging concentration of lipopeptides (0.5–256 µg/mL) and incubated at 37 °C for 18 h and 24 h respectively. The experiments were conducted on 96-well microtiter polystyrene plates (Kartell, Italy). The MIC was taken as the lowest peptide concentration at which a noticeable growth of microorganisms was inhibited. All experiments were conducted in triplicate.
# [4] = system: K. pneumoniae ATCC 700603; type: cell-based, Klebsiella pneumoniae; settings: ATCC 700603, 18 h
# From the text: as §1, §2
# [5] = system: P. aeruginosa ATCC 9027; type: cell-based, Pseudomonas aeruginosa; settings: ATCC 9027, 18 h
# From the text: as §1, §2
# [6] = system: E. faecium ATCC 700221; type: cell-based, Enterococcus faecium; settings: ATCC 700221, 18 h
# From the text: as §1, §2
# [7] = system: S. aureus ATCC 33591 (MRSA); type: cell-based, Staphylococcus aureus; settings: ATCC 33591, 18 h
# From the text: as §1, §2
# [8] = system: S. aureus ATCC 25923; type: cell-based, Staphylococcus aureus; settings: ATCC 25923, 18 h
# From the text: as §1, §2
# [9] = system: K. aerogenes ATCC 13048; type: cell-based, Klebsiella aerogenes; settings: ATCC 13048, 18 h
# From the text: as §1, §2
# [10] = system: A. baumannii ATCC BAA-1605; type: cell-based, Acinetobacter baumannii; settings: ATCC BAA-1605, 18 h
# From the text: as §1, §2
Structure (SMILES),tR’ [1] [min],tR’ (adjusted retention time) [1] [min],HC50 [2],MIC CA [3] [µg/mL],MIC PA [5] [µg/mL],MIC SA [8] [µg/mL],further results
"CCCCCCCC(=O)N[C@@H](CCCNC(=N)N)C(=O)N[C@@H](CCCNC(=N)N)C(N)=O [compound 1, C8-RR-NH2, reference compound] (HELM PEPTIDE1{[CCCCCCCC(=O)[*:2]].R.R.[am]}$$$$V2.0)",14.46,,,,,,
"CCCCCCCCCC(=O)N[C@@H](CCCNC(=N)N)C(=O)N[C@@H](CCCNC(=N)N)C(N)=O [compound 2, C10-RR-NH2, reference compound] (HELM PEPTIDE1{[CCCCCCCCCC(=O)[*:2]].R.R.[am]}$$$$V2.0)",24.30,24.30,,,,,
"CCCCCCCCCCCC(=O)NCC(=O)N[C@@H](CCCNC(=N)N)C(=O)N[C@@H](CCCNC(=N)N)C(N)=O [compound 29, C12-GRR-NH2]",33.20,,>256 µg/mL,64,128,32,
"CCCCCCCC(=O)N[C@@H](CCCC)C(=O)N[C@@H](CCCNC(=N)N)C(=O)N[C@@H](CCCNC(=N)N)C(N)=O [compound 63, C8-NleRR-NH2] (HELM PEPTIDE1{[CCCCCCCC(=O)[*:2]].[Nle].R.R.[am]}$$$$V2.0)",,,,,,,Adjusted retention time [1]: 25.429 min
"CCCCCCCCCCCC(=O)N1CCC[C@H]1C(=O)N[C@@H](CCCNC(=N)N)C(=O)N[C@@H](CCCNC(=N)N)C(N)=O [compound 73, C12-PRR-NH2]",35.82,,>256 µg/mL,64,64,32,
"CCCCCCCCC(CCCCCC)C(=O)N[C@@H](CCCNC(=N)N)C(=O)N[C@@H](CCCNC(=N)N)C(N)=O (stereo partly drawn) [compound 105, C10(6)-RR-NH2]",,,200.25 (±16.07) µg/mL,16,8,4,MIC K [4]: >256 (-) µg/mL; MIC E1 [6]: 8 µg/mL; MIC S [7]: 4 µg/mL; MIC E2 [9]: >256 (-) µg/mL; MIC A [10]: 256 µg/mL
"CCCCCCCCCC(=O)N[C@@H](CCCNC(=N)N)C(=O)N[C@@H](Cc1ccccc1)C(=O)N[C@@H](CCCNC(=N)N)C(N)=O [compound 106, C10-RFR-NH2] (HELM PEPTIDE1{[CCCCCCCCCC(=O)[*:2]].R.F.R.[am]}$$$$V2.0)",,31.44,,,,,∆tR [1]: 7.14 min
"CCCCCCCCCCCC(=O)N[C@@H](CCCNC(=N)N)C(=O)N[C@@H](Cc1ccccc1)C(=O)N[C@@H](CCCNC(=N)N)C(N)=O [compound 107, C12-RFR-NH2] (HELM PEPTIDE1{[CCCCCCCCCCCC(=O)[*:2]].R.F.R.[am]}$$$$V2.0)",,38.67,,,,,∆tR [1]: 6.09 min
"CCCCCCCCCC(=O)N[C@@H](CCCNC(=N)N)C(=O)N[C@@H](CCCNC(=N)N)C(=O)N[C@@H](Cc1ccccc1)C(N)=O [compound 108, C10-RRF-NH2] (HELM PEPTIDE1{[CCCCCCCCCC(=O)[*:2]].R.R.F.[am]}$$$$V2.0)",,31.07,,,,,∆tR [1]: 6.77 min
"CCCCCCCCCCCC(=O)N[C@@H](CCCNC(=N)N)C(=O)N[C@@H](CCCNC(=N)N)C(=O)N[C@@H](Cc1ccccc1)C(N)=O [compound 109, C12-RRF-NH2] (HELM PEPTIDE1{[CCCCCCCCCCCC(=O)[*:2]].R.R.F.[am]}$$$$V2.0)",,38.02,,,,,∆tR [1]: 5.44 min

# Second part, led by results:
tR’ [1] [min],tR’ (adjusted retention time) [1] [min],HC50 [2],MIC CA [3] [µg/mL],MIC PA [5] [µg/mL],MIC SA [8] [µg/mL],Structure (SMILES),further results
32.58,32.58,>256 µg/mL,64,128,32,"CCCCCCCCCCCC(=O)N[C@@H](CCCNC(=N)N)C(=O)N[C@@H](CCCNC(=N)N)C(N)=O [compound 3, C12-RR-NH2, reference compound] (HELM PEPTIDE1{[CCCCCCCCCCCC(=O)[*:2]].R.R.[am]}$$$$V2.0)",MIC K [4]: >256 (-) µg/mL; MIC E1 [6]: 32 µg/mL; MIC S [7]: 32 µg/mL; MIC E2 [9]: >256 (-) µg/mL; MIC A [10]: 256 µg/mL
39.79,,68.43 (±1.41) µg/mL,8,32,8,"CCCCCCCCCCCCCC(=O)N[C@@H](CCCNC(=N)N)C(=O)N[C@@H](CCCNC(=N)N)C(N)=O [compound 4, C14-RR-NH2, reference compound] (HELM PEPTIDE1{[CCCCCCCCCCCCCC(=O)[*:2]].R.R.[am]}$$$$V2.0)",MIC K [4]: 256 µg/mL; MIC E1 [6]: 8 µg/mL; MIC S [7]: 8 µg/mL; MIC E2 [9]: 256 µg/mL; MIC A [10]: 64 µg/mL
40.25,,49.95 (±1.00) µg/mL,32,128,64,"CCCCCCCCCCCCCC(=O)N[C@@H](CC(=O)O)C(=O)N[C@@H](CCCNC(=N)N)C(=O)N[C@@H](CCCNC(=N)N)C(N)=O [compound 18, C14-DRR-NH2] (HELM PEPTIDE1{[CCCCCCCCCCCCCC(=O)[*:2]].D.R.R.[am]}$$$$V2.0)",
40.17,,59.51 (±4.00) µg/mL,32,128,64,"CCCCCCCCCCCCCC(=O)N[C@@H](CCC(=O)O)C(=O)N[C@@H](CCCNC(=N)N)C(=O)N[C@@H](CCCNC(=N)N)C(N)=O [compound 22, C14-ERR-NH2] (HELM PEPTIDE1{[CCCCCCCCCCCCCC(=O)[*:2]].E.R.R.[am]}$$$$V2.0)",
,,>256 µg/mL,64,64,32,"CCCCCCCCCC(=O)N[C@@H](CCCC)C(=O)N[C@@H](CCCNC(=N)N)C(=O)N[C@@H](CCCNC(=N)N)C(N)=O [compound 64, C10-NleRR-NH2] (HELM PEPTIDE1{[CCCCCCCCCC(=O)[*:2]].[Nle].R.R.[am]}$$$$V2.0)",Adjusted retention time [1]: 33.155 min
33.82,,>256 µg/mL,64,128,32,"CCCCCCCCCCCC(=O)N[C@H](C(=O)N[C@@H](CCCNC(=N)N)C(=O)N[C@@H](CCCNC(=N)N)C(N)=O)[C@@H](C)O [compound 89, C12-TRR-NH2] (HELM PEPTIDE1{[CCCCCCCCCCCC(=O)[*:2]].T.R.R.[am]}$$$$V2.0)",

# Source: paper PMC7024302, “Ultrashort Cationic Lipopeptides–Effect of N-Terminal Amino Acid and Fatty Acid Type on Antimicrobial Activity and Hemolysis” (Molecules, 2020)
